Reference: patent US20070207952A1, “Long Acting Biologically Active Conjugates” (priority 2003, published 2007)
Where a SMILES comes first, the peptide text is derived from it. [ ]: non-standard residue; d: D form. The star is where a group is joined. Propanoyl(3-maleimido) = O=C1C=CC(=O)N1CCC(=O)*; Nle = CCCC[C@H](N)C(=O)O; AEEA = NCCOCCOCC(=O)O

Legend:
HIV-1 IIIB = test: Antiviral cytotoxicity (MTT) assay with MT4 cells, HIV-1 IIIB; format: cell-based; conditions: MT-4 cells, 5 days, average of 2 or 3 experiments
[1] = Kilby et al 1998; cited from earlier work
HIV NL4-3 = test: Antiviral cytotoxicity (MTT) assay with MT4 cells, HIV NL4-3; format: cell-based, HIV-1; conditions: MT-4 cells, 5 days, average of 2 or 3 experiments
Experimental: (§1) Antiviral potency of the peptides was analyzed against HIV-1 HXB2 or NLA-3 strains using a cytotoxicity assay with MT4 cells as previously described (ref 1-3) with minor modifications. MT-4 cells (1.5×10^4/ml) were exposed to 200 50% tissue culture infective doses (TCID50) of viruses in the presence of various concentrations of test compound in 96 well microtiter plates and incubated at 37° C. for 5 days. Cytotoxicity of HIV was measured by the addition of 3-(4,5-dimethylthiazol-2-yl)-2,5-diphenytetrazolium bromide (MMI) solution to each well to a final concentration of 0.75 mg/ml, and incubation for 1 hour a 37° C. After incubation, cells were dissolved in isopropanoyrriton-X 100/HCl (1000:50:25) solution. Absorbance was monitored in a microplate reader (Spectramax, Molecular Devices) at 540 rm and 690 nm. MT-4 cells were obtained from the AIDS Research and Reference Reagent Program (ARRRP, Division of AIDS, NIAID, NIH: MT-4 from Dr. D. Richman). Cells were propagated in RPMI 1640 growth medium supplemented with 10% fetal bovine serum, 50U of penicillin and 50 μg of streptomycin per ml ([Ivitrogen, Carlsbad Calif.).

HBX2 HIV-1 = test: Antiviral cytotoxicity assay with MT4 cells, modified peptides and conjugates; format: cell-based; conditions: HBX2 HIV-1, MT4 cells; average of 2-3 experiments
Experimental: as §1

| Molecule | IC50 (HIV-1 IIIB) [nM] | half-life [1] [h] | IC50 (HIV NL4-3) [nM] | IC50 (HBX2 HIV-1) [nM] |
| --- | --- | --- | --- | --- |
| enfuvirtide | 4.7 | 1.8 | 120 | – |
| CCCC[C@H](NC(=O)[C@H](Cc1c[nH]c2ccccc12)NC(=O)COCCOCCNC(=O)CCN1C(=O)C=CC1=O)C(=O)N[C@@H](CCC(=O)O)C(=O)N[C@@H](Cc1c[nH]c2ccccc12)C(=O)N[C@@H](CC(=O)O)C(=O)N[C@@H](CCCNC(=N)N)C(=O)N[C@@H](CCCCN)C(=O)N[C@H](C(=O)N[C@@H](CCC(=O)O)C(=O)N[C@@H](CCC(=O)O)C(=O)N[C@@H](Cc1ccc(O)cc1)C(=O)N[C@H](C(=O)N[C@@H](CCCCN)C(=O)N[C@@H](CCCCN)C(=O)N[C@H](C(=O)N[C@@H](CCCCN)C(=O)N[C@@H](CCCCN)C(=O)N[C@@H](CC(C)C)C(=O)N[C@H](C(=O)N[C@@H](CCC(=O)O)C(=O)N[C@@H](CCC(=O)O)C(=O)N[C@@H](CO)C(=O)N[C@@H](CCC(N)=O)C(=O)N[C@@H](CCC(=O)O)C(=O)N[C@@H](CCC(N)=O)C(=O)N[C@@H](CCC(N)=O)C(=O)N[C@@H](CCC(=O)O)C(=O)N[C@@H](CCCCN)C(=O)N[C@@H](CC(N)=O)C(=O)N[C@@H](CCC(=O)O)C(=O)N[C@@H](CCCCN)C(=O)N[C@@H](CCC(=O)O)C(=O)N[C@@H](CC(C)C)C(=O)N[C@@H](CCCCN)C(N)=O)[C@@H](C)CC)[C@@H](C)CC)[C@@H](C)O)[C@@H](C)CC [SPI-70038] ({Propanoyl(3-maleimido)-AEEA}-W[Nle]EWDRKIEEYTKKIKKLIEESQEQQEKNEKELK-NH2) | – | – | – | 2 |
| CCCC[C@H](NC(=O)[C@H](Cc1c[nH]c2ccccc12)NC(C)=O)C(=O)N[C@@H](CCC(=O)O)C(=O)N[C@@H](Cc1c[nH]c2ccccc12)C(=O)N[C@@H](CC(=O)O)C(=O)N[C@@H](CCCNC(=N)N)C(=O)N[C@@H](CCC(=O)O)C(=O)N[C@@H](CCC(N)=O)C(=O)N[C@@H](CC(N)=O)C(=O)N[C@@H](CC(N)=O)C(=O)N[C@@H](Cc1ccc(O)cc1)C(=O)N[C@H](C(=O)N[C@@H](CO)C(=O)N[C@@H](CC(C)C)C(=O)N[C@H](C(=O)N[C@@H](Cc1c[nH]cn1)C(=O)N[C@@H](CO)C(=O)N[C@@H](CC(C)C)C(=O)N[C@H](C(=O)N[C@@H](CCC(=O)O)C(=O)N[C@@H](CCC(=O)O)C(=O)N[C@@H](CO)C(=O)N[C@@H](CCC(N)=O)C(=O)N[C@@H](CC(N)=O)C(=O)N[C@@H](CCC(N)=O)C(=O)N[C@@H](CCC(N)=O)C(=O)N[C@@H](CCC(=O)O)C(=O)N[C@@H](CCCCN)C(=O)N[C@@H](CC(N)=O)C(=O)N[C@@H](CCC(=O)O)C(=O)N[C@@H](CCC(N)=O)C(=O)N[C@@H](CCC(=O)O)C(=O)N[C@@H](CC(C)C)C(=O)N[C@@H](CC(C)C)C(N)=O)[C@@H](C)CC)[C@@H](C)CC)[C@@H](C)O [peptide 2, Ac-WXEWDREQNNYTSLIHSLIEESQNQQEKNEQELL-NH2] (Ac-W[Nle]EWDREQNNYTSLIHSLIEESQNQQEKNEQELL-NH2) | 2.4 | – | 18 | – |
| CCCC[C@H](NC(=O)[C@H](Cc1c[nH]c2ccccc12)NC(C)=O)C(=O)N[C@@H](CCC(=O)O)C(=O)N[C@@H](Cc1c[nH]c2ccccc12)C(=O)N[C@@H](CC(=O)O)C(=O)N[C@@H](CCCNC(=N)N)C(=O)N[C@@H](CCCCN)C(=O)N[C@H](C(=O)N[C@@H](CCC(=O)O)C(=O)N[C@@H](CCC(=O)O)C(=O)N[C@@H](Cc1ccc(O)cc1)C(=O)N[C@H](C(=O)N[C@@H](CCCCN)C(=O)N[C@@H](CCCCN)C(=O)N[C@H](C(=O)N[C@@H](CCCCN)C(=O)N[C@@H](CCCCN)C(=O)N[C@@H](CC(C)C)C(=O)N[C@H](C(=O)N[C@@H](CCC(=O)O)C(=O)N[C@@H](CCC(=O)O)C(=O)N[C@@H](C)C(=O)N[C@@H](CCC(N)=O)C(=O)N[C@@H](CCC(=O)O)C(=O)N[C@@H](CCC(N)=O)C(=O)N[C@@H](CCC(N)=O)C(=O)N[C@@H](CCC(=O)O)C(=O)N[C@@H](CCCCN)C(=O)N[C@@H](CC(N)=O)C(=O)N[C@@H](CCC(=O)O)C(=O)N[C@@H](CCCCN)C(=O)N[C@@H](CCC(=O)O)C(=O)N[C@@H](CC(C)C)C(=O)N[C@@H](CCCCN)C(N)=O)[C@@H](C)CC)[C@@H](C)CC)[C@@H](C)O)[C@@H](C)CC [peptide 8, Ac-WXEWDRKIEEYTKKIKKLIEEAQEQQEKNEKELK-NH2] (Ac-W[Nle]EWDRKIEEYTKKIKKLIEEAQEQQEKNEKELK-NH2) | 2.6 | – | 1.2 | – |
| CCCC[C@H](NC(=O)[C@H](Cc1c[nH]c2ccccc12)NC(C)=O)C(=O)N[C@@H](CCC(=O)O)C(=O)N[C@@H](Cc1c[nH]c2ccccc12)C(=O)N[C@@H](CC(=O)O)C(=O)N[C@@H](CCCNC(=N)N)C(=O)N[C@@H](CCCCN)C(=O)N[C@H](C(=O)N[C@@H](CCC(=O)O)C(=O)N[C@@H](CCC(=O)O)C(=O)N[C@@H](Cc1ccc(O)cc1)C(=O)N[C@H](C(=O)N[C@@H](CCCCN)C(=O)N[C@@H](CCCCN)C(=O)N[C@H](C(=O)N[C@@H](CCC(=O)O)C(=O)N[C@@H](CCC(=O)O)C(=O)N[C@@H](CC(C)C)C(=O)N[C@H](C(=O)N[C@@H](CCCCN)C(=O)N[C@@H](CCCCN)C(=O)N[C@@H](C)C(=O)N[C@@H](CCC(N)=O)C(=O)N[C@@H](CCC(=O)O)C(=O)N[C@@H](CCC(N)=O)C(=O)N[C@@H](CCC(N)=O)C(=O)N[C@@H](CCC(=O)O)C(=O)N[C@@H](CCCCN)C(=O)N[C@@H](CC(N)=O)C(=O)N[C@@H](CCC(=O)O)C(=O)N[C@@H](CCCCN)C(=O)N[C@@H](CCC(=O)O)C(=O)N[C@@H](CC(C)C)C(=O)N[C@@H](CCCCN)C(N)=O)[C@@H](C)CC)[C@@H](C)CC)[C@@H](C)O)[C@@H](C)CC [peptide 11, Ac-WXEWDRKIEEYTKKIEELIKKAQEQQEKNEKELK-NH2] (Ac-W[Nle]EWDRKIEEYTKKIEELIKKAQEQQEKNEKELK-NH2) | 2.1 | – | 1.1 | – |
| CCCC[C@H](NC(=O)[C@H](Cc1c[nH]c2ccccc12)NC(C)=O)C(=O)N[C@@H](CCC(=O)O)C(=O)N[C@@H](Cc1c[nH]c2ccccc12)C(=O)N[C@@H](CC(=O)O)C(=O)N[C@@H](CCCNC(=N)N)C(=O)N[C@@H](CCC(=O)O)C(=O)N[C@H](C(=O)N[C@@H](CC(N)=O)C(=O)N[C@@H](CC(N)=O)C(=O)N[C@@H](Cc1ccc(O)cc1)C(=O)N[C@H](C(=O)N[C@@H](CO)C(=O)N[C@@H](CC(C)C)C(=O)N[C@H](C(=O)N[C@@H](Cc1c[nH]cn1)C(=O)N[C@@H](CO)C(=O)N[C@@H](CCC(N)=O)C(=O)N[C@H](C(=O)N[C@@H](CCC(=O)O)C(=O)N[C@@H](CCC(=O)O)C(=O)N[C@@H](CO)C(=O)N[C@@H](CCC(N)=O)C(=O)N[C@@H](CC(N)=O)C(=O)N[C@@H](CCC(N)=O)C(=O)N[C@@H](CCC(N)=O)C(=O)N[C@@H](CCC(=O)O)C(=O)N[C@@H](CCCCN)C(=O)N[C@@H](CC(N)=O)C(=O)N[C@@H](CCC(=O)O)C(=O)N[C@@H](CCC(N)=O)C(=O)N[C@@H](CCC(=O)O)C(=O)N[C@@H](CC(C)C)C(=O)N[C@@H](CC(C)C)C(N)=O)[C@@H](C)CC)[C@@H](C)CC)[C@@H](C)O)[C@@H](C)CC [peptide 5, Ac-WXEWDREINNYTSLIHSQIEESQNQQEKNEQELL-NH2] (Ac-W[Nle]EWDREINNYTSLIHSQIEESQNQQEKNEQELL-NH2) | 6.6 | – | 200 | – |
